Tests used:
Format in all cases: in vitro ADME
UGT1A10 = target: T1, UGT1A10 (Homo sapiens, UniProt Q9HAW8); assay: SAHA glucuronidation, wild-type UGT1A10
T1 sequence (Q9HAW8 26-530): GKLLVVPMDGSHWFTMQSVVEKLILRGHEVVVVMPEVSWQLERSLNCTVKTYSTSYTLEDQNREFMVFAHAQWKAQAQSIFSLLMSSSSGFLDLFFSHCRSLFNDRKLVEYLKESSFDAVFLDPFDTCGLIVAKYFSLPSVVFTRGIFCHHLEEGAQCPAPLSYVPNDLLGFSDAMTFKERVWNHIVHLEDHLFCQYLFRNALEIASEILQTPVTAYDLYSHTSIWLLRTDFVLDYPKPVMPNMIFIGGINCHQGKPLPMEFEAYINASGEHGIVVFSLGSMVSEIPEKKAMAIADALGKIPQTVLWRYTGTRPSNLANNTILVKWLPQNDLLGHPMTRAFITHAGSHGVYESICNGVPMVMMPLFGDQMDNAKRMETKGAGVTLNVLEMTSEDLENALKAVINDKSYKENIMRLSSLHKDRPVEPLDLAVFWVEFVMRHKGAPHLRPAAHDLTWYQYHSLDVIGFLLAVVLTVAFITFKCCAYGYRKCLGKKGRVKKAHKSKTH

UGT1A4 = target: T2, UGT1A4 (Homo sapiens, UniProt P22310); assay: SAHA glucuronidation screen, UGT1A4-overexpressing cell homogenate
T2 sequence (P22310 29-534): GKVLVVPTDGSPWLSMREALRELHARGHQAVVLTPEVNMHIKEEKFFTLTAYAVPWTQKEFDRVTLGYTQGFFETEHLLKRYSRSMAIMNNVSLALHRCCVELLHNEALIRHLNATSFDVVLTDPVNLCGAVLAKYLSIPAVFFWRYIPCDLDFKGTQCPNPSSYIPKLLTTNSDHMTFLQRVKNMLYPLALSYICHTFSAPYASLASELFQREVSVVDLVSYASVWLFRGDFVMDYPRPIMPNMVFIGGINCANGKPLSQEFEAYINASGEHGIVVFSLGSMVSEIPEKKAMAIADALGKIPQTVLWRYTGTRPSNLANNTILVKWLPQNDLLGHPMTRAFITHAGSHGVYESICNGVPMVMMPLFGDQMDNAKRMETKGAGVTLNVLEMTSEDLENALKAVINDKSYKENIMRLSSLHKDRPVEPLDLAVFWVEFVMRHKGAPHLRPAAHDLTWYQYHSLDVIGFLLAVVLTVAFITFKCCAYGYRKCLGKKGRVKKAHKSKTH

UGT1A3 = target: T3, UGT1A3 (Homo sapiens, UniProt P35503); assay: SAHA glucuronidation, UGT1A3-overexpressing HEK293 cell homogenate
T3 sequence (P35503 29-534): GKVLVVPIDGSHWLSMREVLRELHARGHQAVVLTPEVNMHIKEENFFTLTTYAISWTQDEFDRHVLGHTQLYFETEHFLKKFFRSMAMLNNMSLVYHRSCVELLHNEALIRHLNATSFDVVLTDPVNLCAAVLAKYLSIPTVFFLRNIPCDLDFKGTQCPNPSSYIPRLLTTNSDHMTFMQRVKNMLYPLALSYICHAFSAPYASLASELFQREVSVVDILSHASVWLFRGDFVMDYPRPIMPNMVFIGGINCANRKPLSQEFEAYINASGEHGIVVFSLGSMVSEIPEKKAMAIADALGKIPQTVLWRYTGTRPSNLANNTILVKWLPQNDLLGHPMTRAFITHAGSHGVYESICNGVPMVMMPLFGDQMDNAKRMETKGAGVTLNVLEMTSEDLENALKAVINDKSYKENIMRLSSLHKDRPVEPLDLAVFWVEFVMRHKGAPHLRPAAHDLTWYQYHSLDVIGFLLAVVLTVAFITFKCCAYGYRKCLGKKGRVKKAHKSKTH

[1] = target: T4, UGT1A7*4 (UGT1A7p.Trp208Arg) (Homo sapiens, UniProt Q9HAW7, W208R); assay: SAHA glucuronidation, UGT1A7*4 variant cell homogenate
T4 sequence (Q9HAW7 26-530 W208R): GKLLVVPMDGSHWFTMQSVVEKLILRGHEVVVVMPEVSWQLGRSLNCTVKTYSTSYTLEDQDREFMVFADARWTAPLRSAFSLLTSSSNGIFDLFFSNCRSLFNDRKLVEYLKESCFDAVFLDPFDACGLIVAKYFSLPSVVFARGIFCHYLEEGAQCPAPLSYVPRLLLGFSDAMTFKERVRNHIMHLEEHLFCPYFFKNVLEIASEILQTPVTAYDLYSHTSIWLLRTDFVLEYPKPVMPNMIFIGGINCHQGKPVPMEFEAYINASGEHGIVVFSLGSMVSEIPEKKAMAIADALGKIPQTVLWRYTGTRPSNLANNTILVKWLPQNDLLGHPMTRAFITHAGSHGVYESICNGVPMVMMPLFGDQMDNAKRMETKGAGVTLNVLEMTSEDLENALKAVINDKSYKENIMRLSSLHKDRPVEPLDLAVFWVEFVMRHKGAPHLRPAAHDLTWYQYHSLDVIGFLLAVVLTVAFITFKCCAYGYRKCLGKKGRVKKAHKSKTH

UGT1A9 = target: T5, UGT1A9 (Homo sapiens, UniProt O60656); assay: SAHA glucuronidation, UGT1A9-overexpressing HEK293 cell homogenate
T5 sequence (O60656 26-530): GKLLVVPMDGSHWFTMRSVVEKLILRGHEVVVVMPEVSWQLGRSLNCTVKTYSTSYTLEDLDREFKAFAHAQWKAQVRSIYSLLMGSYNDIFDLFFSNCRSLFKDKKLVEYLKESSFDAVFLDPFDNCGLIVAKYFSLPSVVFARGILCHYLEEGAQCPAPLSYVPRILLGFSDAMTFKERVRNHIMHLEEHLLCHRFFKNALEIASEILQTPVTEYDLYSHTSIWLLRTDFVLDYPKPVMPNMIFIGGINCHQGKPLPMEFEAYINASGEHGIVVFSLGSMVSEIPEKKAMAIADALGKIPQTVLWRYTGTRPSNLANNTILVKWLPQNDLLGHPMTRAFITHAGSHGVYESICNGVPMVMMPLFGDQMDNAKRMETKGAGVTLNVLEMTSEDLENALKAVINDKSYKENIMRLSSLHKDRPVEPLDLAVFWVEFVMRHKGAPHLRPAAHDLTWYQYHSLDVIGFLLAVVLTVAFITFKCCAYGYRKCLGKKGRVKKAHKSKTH

[2] = 400 μg UGT-overexpressing cell homogenate, 1-h incubation

`O=C(CCCCCCC(=O)Nc1ccccc1)NO` [SAHA, Suberoylanilide hydroxamic acid] was tested, and the “glucuronidation against SAHA (screen)” value (UGT1A10; [2]) was “high levels of glucuronidation”, the “KM of UGT1A10 higher than that observed for UGT2B17” value (UGT1A10; against SAHA) was 3 fold and the Km at 1 h (UGT1A10; human, pH 7.5) was 1000 ± 100 µM. The “glucuronidation against SAHA” value (UGT1A4; [2]) was “detectable levels of glucuronidation”, the Km at 1 h (UGT1A4; human, UGT1A4-overexpressing cell homogenate, pH 7.5) was > 8000 µM and the “glucuronidation against SAHA (screen)” value (UGT1A3; [2]) was “high levels of glucuronidation”. For the same compound, the Km at 1 h (UGT1A3; human, UGT1A3-overexpressing HEK293 cell homogenate, pH 7.5) was 3400 ± 800 µM, the “difference in glucuronidation activity against SAHA versus wild-type UGT1A7” value ([1]; UGT1A7 variants) was “No significant difference” and the Km at 1 h ([1]; human, pH 7.5) was 2200 ± 500 µM. The “glucuronidation against SAHA (screen)” value (UGT1A9; [2]) was “high levels of glucuronidation” and the Km at 1 h (UGT1A9; human, UGT1A9-overexpressing HEK293 cell homogenate, pH 7.5) was 1600 ± 500 µM.
